The source of these data is ChEMBL document CHEMBL6121066, “Structure-Activity Relationship Studies of DNA Methyltransferase 1 Monovalent Degraders” (J Med Chem, 2025).

Structures are written as SMILES. pIC50: −log10 of the molar value. Active and inactive are the calls of the source. No cut-off for these calls is given here.

The test system of assay [1] is HCT-116. In words: Induction of molecular glue effect mediated DNMT1 degradation in human HCT-116 cells assessed as reduction in DNMT1 protein level by measuring maximal efficacy at 1 uM incubated for 24 hrs by Western blot analysis relative to control. The format is cell-based. (In western blotting, separated proteins are transferred to a membrane and probed.)
For assay [2], the system named is HCT-116. In words: Induction of molecular glue effect mediated DNMT1 degradation in human HCT-116 cells transfected with NEDD4 siRNA assessed as reduction in DNMT1 protein level at 100 nM measured after 24 hrs by Western blot analysis. In kind it is cell-based.
The target in assay [3] is Histone-lysine N-methyltransferase 2A (Homo sapiens) (UniProt Q03164). In words: Inhibition of human MLL1 using nucleosomes and SAM as substrate at 1 uM by radioisotope-based MT HotSpot assay relative to control.
Assay [4] deals with T1, Histone-lysine N-methyltransferase NSD2 (Homo sapiens) (UniProt O96028).
T1 sequence (whole entry): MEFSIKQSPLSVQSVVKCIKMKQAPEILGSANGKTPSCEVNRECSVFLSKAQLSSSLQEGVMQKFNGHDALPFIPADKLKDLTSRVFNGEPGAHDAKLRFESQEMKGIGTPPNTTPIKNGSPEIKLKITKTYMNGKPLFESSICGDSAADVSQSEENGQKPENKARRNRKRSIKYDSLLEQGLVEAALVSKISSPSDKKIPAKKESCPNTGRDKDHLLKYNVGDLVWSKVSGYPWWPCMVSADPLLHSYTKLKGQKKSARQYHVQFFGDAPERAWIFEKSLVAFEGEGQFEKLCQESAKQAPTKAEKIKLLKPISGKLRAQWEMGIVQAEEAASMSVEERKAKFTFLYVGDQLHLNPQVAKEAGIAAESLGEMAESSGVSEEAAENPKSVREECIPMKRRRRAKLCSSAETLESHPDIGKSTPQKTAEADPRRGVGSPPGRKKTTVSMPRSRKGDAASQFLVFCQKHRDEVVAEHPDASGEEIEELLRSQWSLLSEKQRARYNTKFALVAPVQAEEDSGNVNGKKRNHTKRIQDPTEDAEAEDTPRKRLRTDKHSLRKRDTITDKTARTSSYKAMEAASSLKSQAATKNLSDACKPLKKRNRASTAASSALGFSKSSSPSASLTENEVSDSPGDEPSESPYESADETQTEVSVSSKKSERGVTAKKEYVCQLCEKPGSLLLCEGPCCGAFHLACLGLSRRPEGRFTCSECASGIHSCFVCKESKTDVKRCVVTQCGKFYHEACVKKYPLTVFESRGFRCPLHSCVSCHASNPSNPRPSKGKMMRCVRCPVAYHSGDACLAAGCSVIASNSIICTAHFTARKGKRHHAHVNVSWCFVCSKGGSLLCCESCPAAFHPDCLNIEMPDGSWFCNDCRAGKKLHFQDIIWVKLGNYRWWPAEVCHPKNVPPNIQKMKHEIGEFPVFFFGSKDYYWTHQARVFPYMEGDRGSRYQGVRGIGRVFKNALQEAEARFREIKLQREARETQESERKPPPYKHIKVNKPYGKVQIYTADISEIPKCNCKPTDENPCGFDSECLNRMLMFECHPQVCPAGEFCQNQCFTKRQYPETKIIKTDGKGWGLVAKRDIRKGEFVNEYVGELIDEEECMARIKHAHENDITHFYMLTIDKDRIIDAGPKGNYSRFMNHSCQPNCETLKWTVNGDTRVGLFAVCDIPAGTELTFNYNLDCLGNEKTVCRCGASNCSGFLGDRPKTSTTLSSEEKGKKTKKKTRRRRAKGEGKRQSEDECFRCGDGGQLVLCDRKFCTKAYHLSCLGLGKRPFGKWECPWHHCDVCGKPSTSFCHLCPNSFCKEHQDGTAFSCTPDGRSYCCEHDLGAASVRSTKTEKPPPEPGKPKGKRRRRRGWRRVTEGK
In words: Inhibition of human NSD2 using nucleosomes and SAM as substrate at 1 uM by radioisotope-based MT HotSpot assay relative to control.

Assay [5] concerns HCT-116. In words: Induction of molecular glue effect mediated DNMT1 degradation in human HCT-116 cells assessed as reduction in DNMT1 protein level at 500 nM by Western blot analysis. The format is cell-based. The note with it: time 2-24 hrs.
Assay [6] relates to HCT-116. Briefly: Antiproliferative activity against human HCT-116 cells assessed as inhibition of cell growth upto 15 uM incubated for 7 days by CCK8 assay relative to control. The note with it: time 7 day, up to 15 µM. The format is functional.
In assay [7] the test system is NCI-H1299. In words: Induction of molecular glue effect mediated DNMT1 degradation in human NCI-H1299 cells assessed as reduction in DNMT1 protein level at 100 nM preincubated with MG132 for 2 hrs followed by compound addition and measured after 24 hrs by Western blot analysis. In kind it is cell-based.
Assay [8] concerns MDA-MB-468. In words: Induction of molecular glue effect mediated DNMT1 degradation in human MDA-MB-468 cells assessed as reduction in DNMT1 protein level at 100 nM preincubated with MLN4924 for 2 hrs followed by compound addition and measured after 24 hrs by Western blot analysis. In kind it is cell-based.
Assay [9] deals with HCT-116. Briefly: Downregulation of DNMT1 protein level in human HCT-116 cells at 1 uM incubated for 12 hrs by MS-based global proteomic analysis. The format is functional, cell-based.
Assay [10] concerns the target Protein arginine N-methyltransferase 6 (Homo sapiens) (UniProt Q96LA8). Briefly: Inhibition of human PRMT6 using GST-GAR and SAM as substrate at 1 uM by radioisotope-based MT HotSpot assay relative to control.
Assay [11] deals with DNA (cytosine-5)-methyltransferase 3A (Homo sapiens) (UniProt Q9Y6K1). In words: Inhibition of human DNMT3A using lambda DNA and SAM as substrate at 1 uM by radioisotope-based MT HotSpot assay relative to control.
The test system of assay [12] is HCT-116. Briefly: Induction of molecular glue effect mediated DNMT3B degradation in human HCT-116 cells assessed as reduction in DNMT3B protein level at 500 nM incubated for 24 hrs by Western blot analysis. In kind it is cell-based.
In assay [13] the test system is HCT-116. Briefly: Induction of molecular glue effect mediated DNMT1 degradation in human HCT-116 cells assessed as reduction in DNMT1 protein level at 100 nM preincubated with MG132 for 2 hrs followed by compound addition and measured after 24 hrs by Western blot analysis. In kind it is cell-based.
For assay [14], the system named is NCI-H1299. Briefly: Effect on DNMT1 mRNA level in human NCI-H1299 cells at 500 nM incubated for 24 hrs by RT-qPCR analysis. In kind it is functional, cell-based. (In general: Real-time PCR tracks product formation cycle by cycle.)
The target in assay [15] is DNA (cytosine-5)-methyltransferase 3B (Homo sapiens) (UniProt Q9UBC3). In words: Inhibition of human full-length DNMT3B using lambda DNA and SAM as substrate at 1 uM by radioisotope-based MT HotSpot assay relative to control.
In assay [16] the target is DNA (cytosine-5)-methyltransferase 1 (Homo sapiens, UniProt P26358). In words: Inhibition of human DNMT1 (350 to 1600 residues) extracted from Escherichia coli BL21 (DE3)-codon plus-RIL cells in presence of SAM and hemimethylated DNA.
The test system of assay [17] is NCI-H1299. Briefly: Induction of molecular glue effect mediated DNMT1 degradation in human NCI-H1299 cells assessed as reduction in DNMT1 protein level at 100 nM preincubated with MLN4924 for 2 hrs followed by compound addition and measured after 24 hrs by Western blot analysis. The format is cell-based.

Protein arginine N-methyltransferase 6 (Homo sapiens), sequence (Q96LA8 whole entry, looked up): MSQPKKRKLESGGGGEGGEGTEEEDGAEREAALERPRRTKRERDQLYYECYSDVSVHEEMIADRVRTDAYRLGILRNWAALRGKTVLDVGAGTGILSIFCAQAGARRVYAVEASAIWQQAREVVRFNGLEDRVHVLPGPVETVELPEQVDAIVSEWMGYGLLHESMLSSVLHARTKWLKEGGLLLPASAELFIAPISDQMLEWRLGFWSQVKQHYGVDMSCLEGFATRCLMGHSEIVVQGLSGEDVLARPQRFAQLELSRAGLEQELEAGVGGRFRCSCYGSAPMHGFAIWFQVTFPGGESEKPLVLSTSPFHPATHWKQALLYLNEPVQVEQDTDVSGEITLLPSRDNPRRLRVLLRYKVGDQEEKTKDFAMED
Histone-lysine N-methyltransferase 2A (Homo sapiens), sequence (Q03164 1-2718 limits assumed): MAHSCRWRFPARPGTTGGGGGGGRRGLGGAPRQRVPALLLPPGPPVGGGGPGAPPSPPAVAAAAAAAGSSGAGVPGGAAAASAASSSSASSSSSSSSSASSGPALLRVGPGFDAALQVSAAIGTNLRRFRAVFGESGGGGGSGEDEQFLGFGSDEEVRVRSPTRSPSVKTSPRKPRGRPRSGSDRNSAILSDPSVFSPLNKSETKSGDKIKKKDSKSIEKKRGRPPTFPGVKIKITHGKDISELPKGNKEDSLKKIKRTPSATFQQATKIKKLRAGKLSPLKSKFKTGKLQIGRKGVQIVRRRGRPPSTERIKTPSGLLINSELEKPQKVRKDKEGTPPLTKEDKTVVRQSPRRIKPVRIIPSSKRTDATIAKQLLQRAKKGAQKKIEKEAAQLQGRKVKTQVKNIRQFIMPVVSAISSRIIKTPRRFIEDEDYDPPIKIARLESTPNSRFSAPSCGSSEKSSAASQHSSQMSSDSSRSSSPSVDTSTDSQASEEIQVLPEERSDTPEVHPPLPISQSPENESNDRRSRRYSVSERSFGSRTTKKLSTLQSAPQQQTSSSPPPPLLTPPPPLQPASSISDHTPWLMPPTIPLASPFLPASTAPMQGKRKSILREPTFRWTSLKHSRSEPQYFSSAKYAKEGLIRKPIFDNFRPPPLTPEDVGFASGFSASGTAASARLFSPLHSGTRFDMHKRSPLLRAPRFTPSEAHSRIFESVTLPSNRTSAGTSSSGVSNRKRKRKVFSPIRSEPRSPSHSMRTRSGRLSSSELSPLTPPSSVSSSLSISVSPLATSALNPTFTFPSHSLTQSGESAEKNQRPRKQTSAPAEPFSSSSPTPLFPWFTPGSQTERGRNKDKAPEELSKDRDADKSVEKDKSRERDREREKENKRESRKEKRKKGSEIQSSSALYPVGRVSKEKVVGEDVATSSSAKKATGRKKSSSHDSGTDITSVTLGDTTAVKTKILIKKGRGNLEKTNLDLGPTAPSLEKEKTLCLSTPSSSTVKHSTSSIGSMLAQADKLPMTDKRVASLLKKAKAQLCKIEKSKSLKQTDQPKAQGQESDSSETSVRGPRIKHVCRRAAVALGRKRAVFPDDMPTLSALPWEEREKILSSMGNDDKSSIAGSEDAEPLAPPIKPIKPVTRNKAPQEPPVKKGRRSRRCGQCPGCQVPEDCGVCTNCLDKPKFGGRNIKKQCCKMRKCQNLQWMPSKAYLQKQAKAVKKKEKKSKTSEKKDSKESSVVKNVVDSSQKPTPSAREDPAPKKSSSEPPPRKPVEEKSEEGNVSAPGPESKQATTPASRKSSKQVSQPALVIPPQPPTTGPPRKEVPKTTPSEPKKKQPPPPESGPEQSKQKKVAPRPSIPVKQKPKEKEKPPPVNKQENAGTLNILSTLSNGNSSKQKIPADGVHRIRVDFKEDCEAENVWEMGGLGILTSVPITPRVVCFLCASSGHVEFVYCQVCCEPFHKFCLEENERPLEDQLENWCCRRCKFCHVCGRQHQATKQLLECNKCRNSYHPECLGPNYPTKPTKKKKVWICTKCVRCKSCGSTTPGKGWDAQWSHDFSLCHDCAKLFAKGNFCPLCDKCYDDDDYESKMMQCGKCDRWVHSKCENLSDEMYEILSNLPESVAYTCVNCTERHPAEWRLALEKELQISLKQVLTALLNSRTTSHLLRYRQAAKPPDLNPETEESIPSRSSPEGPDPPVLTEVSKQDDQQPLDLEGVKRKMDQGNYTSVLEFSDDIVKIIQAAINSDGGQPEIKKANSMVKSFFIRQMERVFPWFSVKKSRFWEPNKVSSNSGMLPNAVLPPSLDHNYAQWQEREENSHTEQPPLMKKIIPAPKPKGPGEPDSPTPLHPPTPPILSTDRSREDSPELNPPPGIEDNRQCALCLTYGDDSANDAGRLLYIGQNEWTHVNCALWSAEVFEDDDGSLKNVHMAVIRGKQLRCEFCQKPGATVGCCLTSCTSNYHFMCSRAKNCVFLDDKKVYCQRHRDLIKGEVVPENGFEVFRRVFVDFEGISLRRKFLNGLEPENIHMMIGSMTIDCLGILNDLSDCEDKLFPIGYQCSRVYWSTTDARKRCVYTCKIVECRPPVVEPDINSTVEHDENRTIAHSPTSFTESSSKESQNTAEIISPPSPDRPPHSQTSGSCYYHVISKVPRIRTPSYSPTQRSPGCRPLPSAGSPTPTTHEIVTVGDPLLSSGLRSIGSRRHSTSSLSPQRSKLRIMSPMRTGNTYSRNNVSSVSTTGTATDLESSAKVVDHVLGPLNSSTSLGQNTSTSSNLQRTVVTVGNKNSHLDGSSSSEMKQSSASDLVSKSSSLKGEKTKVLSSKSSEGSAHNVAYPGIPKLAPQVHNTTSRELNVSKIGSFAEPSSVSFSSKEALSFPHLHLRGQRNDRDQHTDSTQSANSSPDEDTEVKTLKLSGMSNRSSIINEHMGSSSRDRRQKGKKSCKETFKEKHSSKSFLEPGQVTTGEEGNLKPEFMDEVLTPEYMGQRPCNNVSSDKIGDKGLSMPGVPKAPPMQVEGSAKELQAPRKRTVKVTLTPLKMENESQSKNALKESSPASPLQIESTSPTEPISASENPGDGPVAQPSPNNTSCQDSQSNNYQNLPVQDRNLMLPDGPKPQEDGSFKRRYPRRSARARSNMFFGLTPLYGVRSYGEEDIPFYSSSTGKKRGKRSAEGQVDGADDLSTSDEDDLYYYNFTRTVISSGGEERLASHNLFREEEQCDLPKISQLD
Histone-lysine N-methyltransferase 2A (Homo sapiens), sequence (Q03164 2719-3969 limits assumed): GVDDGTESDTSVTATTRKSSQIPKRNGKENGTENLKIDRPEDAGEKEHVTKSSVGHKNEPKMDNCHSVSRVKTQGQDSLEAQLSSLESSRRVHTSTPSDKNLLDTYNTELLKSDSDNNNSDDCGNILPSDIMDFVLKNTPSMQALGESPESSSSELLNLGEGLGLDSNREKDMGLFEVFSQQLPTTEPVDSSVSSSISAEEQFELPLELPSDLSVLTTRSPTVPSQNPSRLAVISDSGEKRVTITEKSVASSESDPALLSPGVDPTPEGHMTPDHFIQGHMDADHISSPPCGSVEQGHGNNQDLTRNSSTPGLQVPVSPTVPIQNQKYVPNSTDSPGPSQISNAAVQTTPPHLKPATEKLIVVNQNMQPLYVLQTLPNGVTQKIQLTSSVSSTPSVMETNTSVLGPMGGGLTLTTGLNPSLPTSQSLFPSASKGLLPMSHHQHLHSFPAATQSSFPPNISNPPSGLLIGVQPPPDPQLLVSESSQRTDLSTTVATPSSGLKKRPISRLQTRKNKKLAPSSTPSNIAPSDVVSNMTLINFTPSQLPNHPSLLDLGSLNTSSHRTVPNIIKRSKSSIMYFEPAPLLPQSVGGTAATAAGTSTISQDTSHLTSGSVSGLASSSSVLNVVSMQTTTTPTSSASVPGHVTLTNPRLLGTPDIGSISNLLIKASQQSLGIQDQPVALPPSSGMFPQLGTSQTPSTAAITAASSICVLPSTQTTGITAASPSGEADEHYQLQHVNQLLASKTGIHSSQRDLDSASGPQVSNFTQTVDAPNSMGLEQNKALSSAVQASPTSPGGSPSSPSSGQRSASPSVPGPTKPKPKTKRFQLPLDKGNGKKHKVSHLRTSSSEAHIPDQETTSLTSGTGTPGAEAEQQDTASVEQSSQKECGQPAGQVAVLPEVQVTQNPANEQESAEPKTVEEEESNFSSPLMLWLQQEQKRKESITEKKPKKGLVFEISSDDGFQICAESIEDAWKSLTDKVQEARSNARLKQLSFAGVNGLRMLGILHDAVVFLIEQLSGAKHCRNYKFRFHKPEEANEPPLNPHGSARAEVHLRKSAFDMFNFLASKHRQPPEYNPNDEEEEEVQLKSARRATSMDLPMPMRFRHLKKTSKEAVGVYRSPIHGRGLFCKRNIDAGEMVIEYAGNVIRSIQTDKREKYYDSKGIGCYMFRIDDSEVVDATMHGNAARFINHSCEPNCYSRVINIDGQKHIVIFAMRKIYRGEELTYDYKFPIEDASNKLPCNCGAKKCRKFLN

Broadly, the Emax is the maximal effect, on the per cent scale that the assay sets. By inhibition is commonly meant the relative decrease from the control value, in per cent. As a reminder, the pIC50 is the negative decadic logarithm of the IC50, by convention in mol/L. For `CCc1c(C#N)c(SC(C(N)=O)c2ccccc2)nc(N(C)CC(=O)NC)c1C#N` (configuration not stated), the Emax in assay [1] was 89%. In addition, the result in assay [2], in assay [8], in assay [9] and in assay [17] was Active. The inhibition in assay [3], in assay [4], in [10], in assay [11] and in [15] was less than 20% each time. In addition, in assay [5], the Activity result was “Time-dependent-effect”. The “inhibition (INH)” value in assay [6] is less than 50%. For the same molecule, the outcome in assay [7], in assay [12], in assay [13] and in [14] was inactive. For the same molecule, in [16], the pIC50 was 6.37.
